Here are results for 5 compounds from patent EP0099766A1, “1-3-Dihydro 4-(1-hydroxy-2-amino-ethyl)-2H-indol-2-one derivatives, their salts, process for their preparation, their use as medicines and compositions containing them” (ROUSSEL-UCLAF, priority 1982, dated 1984).

Each structure is given as a SMILES string.

For data set [1], the system named is rats mâles Sprague-Dawley. As to the kind of experiment: Anti-ulcer activity: Shay method modified by Guth (pylorus ligation plus aspirin/HCl gastric lesions). It is filed as in vivo. The following applies: dose 0,4 mg/kg per os one hour before pylorus ligation; aspirin 200 mg/kg per os; Sprague-Dawley rat; mean ulcer score. As to the method:
L'essai est effectué selon la méthode de Shay modifiée par GUTH (GUTH, P.H. et coll, Topical aspirin plus HCl gastric lesions in the rat. Gastroenterology 1979,76, 88-93.) Des rats mâles Sprague-Dawley d'un poids voisin de 250 g, à jeun depuis 48 heures sauf boisson, ont été utilisés. On pratique sous légère anesthésie à l'halothane, la ligature du pylore et une . heure plus tard, on administre l'aspirine per os à la dose de 200 mg/kg, en suspension dans la carboxyméthylcellulose à 0,25% renfermant 15% d'acide chlorhydrique N. Deux heures plus tard, on sacrifie les animaux, prélève et examine les estomacs. Chaque lésion ulcéreuse est cotée de la façon suivante :
La somme des cotations est calculée pour chaque estomac, et le score moyen est établi.pour chaque lot.
Les substances à étudier sont administrées per os une heure avant la ligature.

The test system of the next data set is souris. Conditions: mouse, in vivo, po, 11520 min. The text has this: On a évalué les doses létales DLO des différents composés testés après administration par voie orale chez la souris.
On appelle DLO la dose maximale ne provoquant aucune mortalité en 8 jours.

In data set [2] the test system is oédème plantaire provoqué par la carraghénine chez le rat. As to the kind of experiment: Anti-inflammatory activity: carrageenan-induced plantar oedema. The data set is classed as in vivo. The following applies: dose 0,4 mg/kg oral, given simultaneously with carrageenan; rat paw volume versus controls. From the text:
L'activité anti-inflammatoire a été déterminée sur le test de l'oédème plantaire provoqué par la carraghénine chez le rat.
On administre, à des rats mâles pesant de 130 à 150 g, 0,05 cm3 d'une suspension stérile à 1% de carraghénine dans l'articulation tibio-tarsienne d'une patte postérieure.
Simultanément, on administre le produit à étudier dans une suspension de carboxyméthylcellulose à 0,25% et de Tween à 0,02% par voie orale.
Le volume de la patte est mesuré avant l'administration, puis 2 heures, 4 heures, 6 heures, 8 heures et 24 heures après.
L'intensité de l'inflammation est maxima 4 à 6 heures après l'injection de carraghénine. La différence du volume des pattes des animaux traités et des témoins met en évidence l'action anti inflammatoire du médicament.
(In the carrageenan paw model, swelling and tenderness develop within hours.)

`CCCNCC(O)c1cccc2c1CC(=O)N2` (stereo not shown) [exemple 2, 1,3-dihydro 4-/1-hydroxy 2-(propylamino)éthyl/ 2H-indol-2-one]: in data set [1], the “protège les animaux traités (activité antiulcéreuse)” value is listed as 60%. This compound gave a DL0 with souris of 200 mg/kg.
`O=C1Cc2c(cccc2C(O)CNCC2CC2)N1` (stereo not shown) [exemple 5, Chlorhydratede 1,3-dihydro 4-/1-hydroxy 2-(cyclo-propylméthylamino) éthyl/ 2H-indol-2-one] gave a DL0 with souris of 200 mg/kg.
In the data set on souris, `CCNCC(O)c1cccc2c1CC(=O)N2` (stereo not shown) [compound 7, Chlorhydratede 1,3-dugtdri 4-/(1-hydroxy 2-éthyl-amino) éthyl/ 2H-indol-2-one] registered a DL0 greater than 400 mg/kg.
`CNCC(O)c1cccc2c1CC(=O)N2` (stereo not shown) [compound 3, 1,3-dihydro 4-(1-hydroxy 2-(méthylamino)éthyl) 2H-indol-2-one] had a DL0 in the data set with souris greater than 400 mg/kg.
For the compound `CC(C)NCC(O)c1cccc2c1CC(=O)N2` (stereo not shown) [exemple 1, 1,3-dihydro 4-/2-(1-méthyléthylamino) 1-hydroxy éthyl/ 2H-indol-2-one], the “protège les animaux traités (activité anti-inflammatoire)” value in data set [2] was 61%. The compound also came in with a DL0 in the data set with souris of 200 mg/kg.
